Measured values: PMC7125978 (Bioorganic & Medicinal Chemistry, 2010)

Key:
uninfected cells = details: for Cytotoxicity MCC: minimum cytotoxic concentration, microscopically detectable alteration of cell morphology
several viruses = format: cell-based
CEM cell extract = assay: Prodrug conversion in crude cell extracts; format: in vitro ADME, human; details: for efficiency of conversion among the prodrugs: similar trend in HeLa and MDCK cell extracts
[1] = test system: Respiratory syncytial virus (HeLa); format: cell-based, respiratory syncytial virus (RSV) strain Long; details: relative to ribavirin (1)
[2] = test system: Influenza A/H3N2 subtype (MDCK); format: cell-based, influenza virus type A (H3N2)
HCV (Huh-5–2) = assay: HCV subgenomic replicon luciferase assay in Huh 5-2 cells; format: cell-based, hepatitis C virus (HCV)
Punta toro virus (Vero) = assay: microbe, parasite or virus in culture; format: cell-based
Vaccinia virus (HEL) = format: cell-based, vaccinia virus Lederle strain
[3] = cell extract, 37 °C, after 60 min of incubation

NC(=O)c1ncn([C@@H]2O[C@H](CO)[C@@H](O)[C@H]2O)n1 [Ribavirin, 1-β-D-ribofuranosyl-1,2,4-triazole-3-carboxamide, reference compound]
toxicity to uninfected cells (uninfected cells; at 100 μM): non-toxic | Cytotoxicity MCC (uninfected cells): >100 µM

NC(=O)c1ncn([C@@H]2O[C@H](COP(=O)(N[C@@H](Cc3ccccc3)C(=O)OCc3ccccc3)Oc3cccc4ccccc34)[C@@H](O)[C@H]2O)n1 (stereo partly drawn) [Compound 14, ribavirin-5’-[1-naphthyl(benzoxy-L-phenylalaninyl)] phosphate]
Cytotoxicity MCC (uninfected cells): >100 µM | antiviral activity, all the viruses tested (several viruses): no or borderline activity | conversion of both diastereoisomers (not separable) to metabolite tR 20.2 min (CEM cell extract; CEM cell extract, 37 °C, within 20 min): 80% | efficiency of conversion among the prodrugs (CEM cell extract; CEM cell extract): most efficiently converted

C[C@H](NP(=O)(OC[C@H]1O[C@@H](n2cnc(C(N)=O)n2)[C@H](O)[C@@H]1O)Oc1cccc2ccccc12)C(=O)OCc1ccccc1 (stereo partly drawn) [Compound 13, ribavirin-5′-[1-naphthyl(benzoxy-L-alaninyl)] phosphate]
Cytotoxicity MCC (uninfected cells): >100 µM | fold less active than ribavirin, respiratory syncytial virus [1]: about threefold | fold lower potency than ribavirin, influenza virus [2]: ~2 fold | potency relative to ribavirin, HCV subgenomic replicon replication (HCV (Huh-5–2)): equipotent to ribavirin | EC50 (Punta toro virus (Vero); Punta Toro virus, Vero, read-out: Antiviral activity EC50, Punta toro virus (Vero)): > 100 µM | conversion of isomer tR 19.3 min to metabolite tR 20.2 min (CEM cell extract; cell extract, 37 °C, before second isomer (tR 19.0 min) started to be converted): ≥ 95%

NC(=O)c1ncn([C@@H]2O[C@H](COP(=O)(NCC(=O)OCc3ccccc3)Oc3cccc4ccccc34)[C@@H](O)[C@H]2O)n1 (stereo partly shown) [Compound 15]
Cytotoxicity MCC (uninfected cells): >100 µM | fold less active than ribavirin, respiratory syncytial virus [1]: about threefold | fold superior to ribavirin, Punto Toro virus replication (Punta toro virus (Vero); relative to ribavirin): 3–5 fold | fold superior to ribavirin, vaccinia virus replication (Vaccinia virus (HEL)): 3–5 fold | efficiency of conversion among the prodrugs (CEM cell extract; CEM cell extract): least efficiently converted | conversion of isomer tR 18.8 min to tR 20.2 (CEM cell extract; [3]): 10% | levels of isomer tR 18.5 (CEM cell extract; [3]): virtually unaltered
